Measured values taken from patent publication US11214561B2, “Histone methyltransferase EZH2 inhibitor, preparation method and pharmaceutical use thereof” (ANCUREALL PHARMACEUTICAL (SHANGHAI) CO., LTD., priority 2017, dated 2022).

System: EZH2 A677G mutant positive-expressing tumor cell line Pfeiffer
Experiment: In vivo growth inhibition, Pfeiffer subcutaneous transplantation model
Details: for Tumor volume: 200 mg/kg orally once a day
Text: Test Example 2 Determination of the in vivo growth inhibition activity of the present compounds on EZH2 A677G mutant positive-expressing tumor cell line Pfeiffer NOD/SCID mice were subcutaneously inoculated with human diffuse large cell B lymphoma lymphocyte Pfeiffer (ATCC) expressing EZH2 A677G mutant protein to establish a subcutaneous transplantation model of human B cell lymphoma.
Experimental animals: NOD/SCID mice, female, 9 weeks (weeks of age when tumor cell inoculation), average weight 20.3 g, 18 mice, were purchased from Shanghai Lingchang biotechnology co., Ltd. with animal certificate No.: 2002007656. The breeding environment was SPF grade.
Test samples: the present example compounds 34 (purity: 99.03%) and 35 (purity: 97.6%), solid powder, preserved at −20° C.
Pfeiffer cells were cultured in RPM1640 medium containing 10% of fetal bovine serum. Log-phase Pfeiffer cells were collected and resuspended with PBS to 1×10^8 cells per ml for subcutaneous inoculation in NOD/SCID mice.
All the mice were treated with Co60 irradiation at a dose of 200 rad the day before the inoculation, and 1×10^7 Pfeiffer cells were then subcutaneously inoculated at the right back, and the cells were resuspended in 1:1 PBS and Matrigel (0.1 ml/mouse). When the average tumor volume was 134 mm^3, the mice were randomly grouped according to tumor size. Tumor volume was calculated as: long diameter×short diameter^2/2. The day of tumor cells inoculation was defined as day 0. The test was divided into solvent control group and drug treatment group (compound 34 group and compound 35 group). 6 mice for each group were given orally once a day for a total of 4 weeks. Efficacy was assessed based on relative tumor growth inhibition value (TGI), and safety was assessed based on animal weight change and mortality.
Preparation of test samples: compounds 34 or 35 was weighed and mixed with ultrapure water, and methanesulfonic acid was added for clarification. The PH value was about 1.64 at this moment. 4M NaOH was then added to adjust the PH to 3.5 and bring to volume by ultrapure water, the final concentrations was 20 mg/ml. Determination standard: TGI (%): […].
T/C % refers to the relative value-added rate of tumor, that is, the percentage value of relative tumor volume or tumor weight for the treatment group and the control group at a certain point. T and C were the relative tumor volumes (RTV) of the treatment group and the control group at a specific point, respectively. The calculation formula is as follows: T/C%=TRTV/CRTV*100% TRTV: mean RTV of the treatment group; CRTV: mean RTV of solvent control group; RTV=Vt/V0, V0 was the tumor volume of the animal when grouping, Vt was the tumor volume of the animal after treatment. Statistical analysis: all test results were defined as mean tumor volume±SEM (mean standard error). Tumor volume data of 27 days after the start of treatment were selected for statistical analysis among different groups, and independent sample T test was used to compare whether there were significant differences in tumor volume between the treatment group and the control group. All data were analyzed using SPSS 18.0. P<0.05 was considered as significant difference.

[1] = 200 mg/kg, 27th day after the start of treatment
[2] = 200 mg/kg, 27 days after the start of treatment

## C=CC(=O)N1CCC(N(CC)c2cc(-c3ccc(CN4CCCCC4)cc3)cc(C(=O)NCc3c(C)cc(C)[nH]c3=O)c2C)CC1 [Example 34, N-(4,6-dimethyl-2-oxo-1,2-dihydro-pyridin-3-ylmethyl)-5-[(1-acryloyl-piperidin-4-yl)-ethyl-amino]-4-methyl-4′-(piperidin-1-ylmethyl)-[1,1′-biphenyl]-3-carboxamide]
200 mg/kg dose
  body weight during the treatment: maintained a stable body weight
  tolerability: well tolerated
Day 0 after the start of treatment
  Tumor volume: 135 ± 10 mm^3
Day 3 after the start of treatment
  Tumor volume: 298 ± 25 mm^3
Day 7 after the start of treatment
  Tumor volume: 439 ± 48 mm^3
Day 10 after the start of treatment
  Tumor volume: 441 ± 56 mm^3
Day 14 after the start of treatment
  Tumor volume: 381 ± 39 mm^3
Day 17 after the start of treatment
  Tumor volume: 472 ± 100 mm^3
Day 21 after the start of treatment
  Tumor volume: 477 ± 158 mm^3
Day 24 after the start of treatment
  Tumor volume: 570 ± 154 mm^3
Day 27 after the start of treatment, listed as Compound 34
  Tumor volume: 538 ± 199 mm^3
Day 27 after the start of treatment, listed as compound 34
  Tumor volume: 538 mm^3
[1]
  RTV (x ± S), relative tumor volume: 4.7 ± 2.3
  T/C (%), relative tumor volume: 32.9%
  TGI (%), relative tumor volume: 67.1%
[2]
  T/C (%), tumor weight: 23.4%
  TGI, tumor weight: 76.6%
  Tumor weight (mg) (x ± S): 264 ± 113 mg
200 mg/kg, versus solvent control group
  anti-tumor effect, in words: significant anti-tumor effects
